Results from patent publication US12612410B2 (CHILDREN'S HOSPITAL MEDICAL CENTER, priority 2020, dated 2026).

Columns and labels:
IRAK4 = target: T1, IRAK4 (Homo sapiens, UniProt Q9NWZ3); test: RBC HotSpot Kinase Assay, IRAK4; format: biochemical; design: purchased Reaction Biology (RBC), HotSpot kinase assay; settings: isolated kinase, 33P-ATP
T1 sequence (Q9NWZ3 1-460): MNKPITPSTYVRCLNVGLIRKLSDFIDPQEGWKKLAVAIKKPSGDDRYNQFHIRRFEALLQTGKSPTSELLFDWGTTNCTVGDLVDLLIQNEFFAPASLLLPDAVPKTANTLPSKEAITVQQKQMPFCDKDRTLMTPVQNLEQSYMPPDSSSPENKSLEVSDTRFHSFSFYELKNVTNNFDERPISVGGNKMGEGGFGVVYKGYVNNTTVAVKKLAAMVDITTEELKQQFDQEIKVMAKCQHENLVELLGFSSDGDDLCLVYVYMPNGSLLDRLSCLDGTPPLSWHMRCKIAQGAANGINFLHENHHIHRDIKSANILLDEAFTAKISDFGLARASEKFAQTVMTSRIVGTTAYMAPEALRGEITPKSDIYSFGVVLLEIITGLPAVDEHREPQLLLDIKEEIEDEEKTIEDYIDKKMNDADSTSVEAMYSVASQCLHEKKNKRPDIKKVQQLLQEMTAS
Method in brief: (§1)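 Steps: substrate in reaction buffer (20 mM Hepes pH 7.5, 10 mM MgCl2, 2 mM DTT, 1% DMSO); cofactors added; kinase added; compound dispensed acoustically, 20 min RT; 33P-ATP added; 2 h RT; P81 filter capture.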

IRAK1 = target: T2, IRAK1 (Homo sapiens, UniProt P51617); test: RBC HotSpot Kinase Assay, IRAK1; format: biochemical; settings: isolated kinase, 33P-ATP
T2 construct: purchased Reaction Biology (RBC), HotSpot kinase assay
Method in brief: as §1

FLT3 = target: T3, FLT3 (Homo sapiens, UniProt P36888); test: RBC HotSpot Kinase Assay, FLT3; format: biochemical; design: purchased Reaction Biology (RBC), HotSpot kinase assay; settings: isolated kinase, 33P-ATP
T3 sequence (P36888 27-993): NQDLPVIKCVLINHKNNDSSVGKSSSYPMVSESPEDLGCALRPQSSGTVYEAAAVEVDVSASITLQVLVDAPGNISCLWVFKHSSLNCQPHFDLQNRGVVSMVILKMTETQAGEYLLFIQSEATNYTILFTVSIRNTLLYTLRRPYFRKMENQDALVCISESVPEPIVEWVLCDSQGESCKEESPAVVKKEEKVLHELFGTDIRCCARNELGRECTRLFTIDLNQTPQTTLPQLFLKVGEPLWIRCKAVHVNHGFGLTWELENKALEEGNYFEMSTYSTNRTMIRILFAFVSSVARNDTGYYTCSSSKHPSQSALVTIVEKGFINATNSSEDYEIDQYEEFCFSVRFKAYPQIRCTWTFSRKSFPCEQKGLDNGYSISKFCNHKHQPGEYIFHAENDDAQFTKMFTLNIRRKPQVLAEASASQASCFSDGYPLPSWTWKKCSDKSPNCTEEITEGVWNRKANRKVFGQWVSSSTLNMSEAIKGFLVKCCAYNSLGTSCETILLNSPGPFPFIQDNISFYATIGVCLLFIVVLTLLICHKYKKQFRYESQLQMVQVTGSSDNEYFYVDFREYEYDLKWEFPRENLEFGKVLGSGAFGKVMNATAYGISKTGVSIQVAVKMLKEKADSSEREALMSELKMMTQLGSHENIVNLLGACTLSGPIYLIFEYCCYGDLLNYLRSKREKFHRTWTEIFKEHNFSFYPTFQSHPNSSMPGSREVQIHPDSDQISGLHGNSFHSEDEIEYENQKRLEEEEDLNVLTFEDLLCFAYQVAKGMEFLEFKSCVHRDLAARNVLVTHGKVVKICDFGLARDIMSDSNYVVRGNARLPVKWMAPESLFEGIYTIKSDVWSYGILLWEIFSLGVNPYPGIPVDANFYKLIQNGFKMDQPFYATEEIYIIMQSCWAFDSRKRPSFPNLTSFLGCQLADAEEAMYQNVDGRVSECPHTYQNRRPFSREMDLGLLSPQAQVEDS
Method in brief: as §1

MOLM14 F691L cells = test: MOLM14 F691L cell viability assay (Cell Titer Glo); format: cell-based; settings: Homo sapiens, MOLM-14, 48 h
Procedure: Both cell lines have activated FLT3 receptors, each of which carry additional resistance mutations in the kinase domain (D835Y and F691L, respectively).
MOLM14 D835Y and MOLM14 F691L cells were grown in RPMI-1640 media supplemented with 20% fetal bovine serum (FBS). For viability/cytotoxicity assessments, cells were seeded into 1536-well white polystyrene tissue culture-treated Greiner plates using a Multidrop Combi dispenser (ThermoFisher), in final volume 5 μL of growth media per well, at a density of 1000 cells per well. After cell addition, 23 nL of test compound were transferred into individual wells (22 doses tested for each test compound, with a 1:2 dilution series starting at 10 μM) via a 1536 pin-tool. Bortezomib (final concentration 2.3 μM) was used as a positive control for cell cytotoxicity. Plates were incubated for 48 hours at standard incubator conditions covered by a stainless steel gasketed lid to prevent evaporation. 48 hours post compound addition, 3 μL of Cell Titer Glo (Promega) were added to each well and plates were incubated at room temperature for 15 minutes with the stainless-steel lid in place. Luminescence readings were taken using a Viewlux imager (PerkinElmer) with a 2 second exposure time per plate.

MOLM14 D835Y cells = test: MOLM14 D835Y cell viability assay (Cell Titer Glo); format: cell-based; settings: Homo sapiens, MOLM-14, 48 h
Method in brief: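 MOLM14 cells carrying FLT3 D835Y or F691L were seeded at 1000 cells/well in RPMI-1640 with 20% FBS and dosed at 22 concentrations, 1:2 dilutions from 10 μM. Viability after 48 h by Cell Titer Glo luminescence; 2.3 μM bortezomib as cytotoxic control.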

T2 sequence (P51617 whole entry): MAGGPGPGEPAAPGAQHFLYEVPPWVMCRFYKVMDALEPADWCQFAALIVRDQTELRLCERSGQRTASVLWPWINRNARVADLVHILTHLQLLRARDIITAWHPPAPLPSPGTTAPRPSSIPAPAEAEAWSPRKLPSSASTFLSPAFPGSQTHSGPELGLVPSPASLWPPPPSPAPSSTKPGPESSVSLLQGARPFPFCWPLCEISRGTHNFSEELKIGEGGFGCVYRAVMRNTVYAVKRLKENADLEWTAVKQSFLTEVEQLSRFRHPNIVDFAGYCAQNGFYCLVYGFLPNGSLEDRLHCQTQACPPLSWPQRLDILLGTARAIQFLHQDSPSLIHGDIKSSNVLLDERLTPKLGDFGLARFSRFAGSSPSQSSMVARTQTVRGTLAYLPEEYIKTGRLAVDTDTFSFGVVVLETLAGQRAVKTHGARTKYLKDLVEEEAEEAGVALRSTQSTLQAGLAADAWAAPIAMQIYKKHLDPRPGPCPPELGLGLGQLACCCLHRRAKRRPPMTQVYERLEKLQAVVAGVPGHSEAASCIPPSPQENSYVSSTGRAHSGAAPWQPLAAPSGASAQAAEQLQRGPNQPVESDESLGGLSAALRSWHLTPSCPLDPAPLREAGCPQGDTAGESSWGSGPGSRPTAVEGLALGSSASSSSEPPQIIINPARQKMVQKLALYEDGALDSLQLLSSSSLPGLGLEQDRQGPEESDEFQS

IC50 (IRAK4) | IC50 (IRAK1) | IC50 (FLT3) | IC50 (MOLM14 F691L cells) | IC50 (MOLM14 D835Y cells) | Compound
140 nM | 1860 nM | < 0.5 nM | 183 nM | 49 nM | O=C1COCCN1c1cn2c(-c3cccc(N[C@H]4CNCC[C@@H]4F)n3)cnc2cn1 [Compound 112, 4-(3-(6-(((3S,4S)-4-fluoropiperidin-3-yl)amino)pyridin-2-yl)imidazo[1,2-a]pyrazin-6-yl)morpholin-3-one]
150 nM | 9400 nM | < 0.5 nM | 273 nM | 92 nM | O=C1CCCCN1c1cn2c(-c3cccc(N[C@H]4CNCC[C@@H]4F)n3)cnc2cn1 [Compound 115, 1-(3-(6-(((3S,4S)-4-fluoropiperidin-3-yl)amino)pyridin-2-yl)imidazo[1,2-a]pyrazin-6-yl)piperidin-2-one]
14 nM | 125 nM | 1 nM | 193 nM | 39 nM | O=C1NCCN1c1cn2c(-c3cccc(N[C@@H]4CCCNC4)n3)cnc2cn1 [Compound 116, (R)-1-(3-(6-(piperidin-3-ylamino)pyridin-2-yl)imidazo[1,2-a]pyrazin-6-yl)imidazolidin-2-one]
15 nM | 234 nM | < 0.5 nM | 86 nM | 24 nM | O=C1CCCN1c1cn2c(-c3cccc(N[C@@H]4CCCNC4)n3)cnc2cn1 [Compound 120, 1-[3-[6-[[(3R)-3-piperidyl]amino]-2-pyridyl]imidazo[1,2-a]pyrazin-6-yl]pyrrolidin-2-one]
17 nM | 143 nM | < 0.5 nM | 290 nM | 130 nM | CC(C)(C)c1cn2c(-c3cc(F)cc(N[C@H]4CNCC[C@@H]4F)n3)cnc2cn1 [Compound 124, 6-(6-(tert-butyl)imidazo[1,2-a]pyrazin-3-yl)-4-fluoro-N-((3S,4S)-4-fluoropiperidin-3-yl)pyridin-2-amine]
10 nM | 438 nM | < 0.5 nM | 168 nM | 27 nM | CC(C)Oc1cn2c(-c3cccc(N[C@@H]4CCCNC4)n3)cnc2cn1 [Compound 131, (R)-6-(6-isopropoxyimidazo[1,2-a]pyrazin-3-yl)-N-(piperidin-3-yl)pyridin-2-amine]
2 nM | 144 nM | < 0.5 nM | 119 nM | 19 nM | CC(C)Oc1cn2c(-c3cccc(N[C@H]4CNCC[C@@H]4F)n3)cnc2cn1 [compound 132, N-((3S,4S)-4-fluoropiperidin-3-yl)-6-(6-isopropoxyimidazo[1,2-a]pyrazin-3-yl)pyridin-2-amine]

More lines, now with the values behind:

Compound | IC50 (IRAK4) | IC50 (IRAK1) | IC50 (FLT3) | IC50 (MOLM14 F691L cells) | IC50 (MOLM14 D835Y cells)
O=C1COCCN1c1cn2c(-c3cccc(N[C@@H]4CCCNC4)n3)cnc2cn1 [Compound 111, (R)-4-(3-(6-(piperidin-3-ylamino)pyridin-2-yl)imidazo[1,2-a]pyrazin-6-yl)morpholin-3-one] | 136 nM | 2130 nM | 0.5 nM | 344 nM | 86 nM
O=C1CCCCN1c1cn2c(-c3cccc(N[C@@H]4CCCNC4)n3)cnc2cn1 [Compound 113, (R)-1-(3-(6-(piperidin-3-ylamino)pyridin-2-yl)imidazo[1,2-a]pyrazin-6-yl)piperidin-2-one] | 1330 nM | 9940 nM | 0.7 nM | 579 nM | 172 nM
O=C1CCCCN1c1cn2c(-c3cccc(N[C@H]4CNC[C@@H]4F)n3)cnc2cn1 [Compound 114, 1-(3-(6-(((3S,4S)-4-fluoropyrrolidin-3-yl)amino)pyridin-2-yl)imidazo[1,2-a]pyrazin-6-yl)piperidin-2-one] | 132 nM | > 10000 nM | 1 nM | 4860 nM | 460 nM
O=C1NCCN1c1cn2c(-c3cccc(N[C@H]4CNC[C@@H]4F)n3)cnc2cn1 [Compound 117, 1-(3-(6-(((3S,4S)-4-fluoropyrrolidin-3-yl)amino)pyridin-2-yl)imidazo[1,2-a]pyrazin-6-yl)imidazolidin-2-one] | 2 nM | 75 nM | 0.8 nM | 273 nM | 41 nM
CC(C)(C)c1cn2c(-c3cc(F)cc(N[C@H]4CNC[C@@H]4F)n3)cnc2cn1 [Compound 122, 6-(6-(tert-butyl)imidazo[1,2-a]pyrazin-3-yl)-4-fluoro-N-((3S,4S)-4-fluoropyrrolidin-3-yl)pyridin-2-amine] | 31 nM | 475 nM | < 0.5 nM | 770 nM | 334 nM
CC(C)(C)c1cn2c(-c3cc(F)cc(N[C@@H]4CCCNC4)n3)cnc2cn1 [Compound 123, (R)-6-(6-(tert-butyl)imidazo[1,2-a]pyrazin-3-yl)-4-fluoro-N-(piperidin-3-yl)pyridin-2-amine] | 38 nM | 296 nM | 0.6 nM | 244 nM | 86 nM
CC(C)(C)c1cn2c(-c3cccc(N[C@H]4CNC[C@@H]4F)n3)cnc2cn1 [Compound 128, 6-(6-(tert-butyl)imidazo[1,2-a]pyrazin-3-yl)-N-((3S,4S)-4-fluoropyrrolidin-3-yl)pyridin-2-amine] | 0.6 nM | 108 nM | < 0.5 nM | 326 nM | 58 nM
FC(F)COc1cn2c(-c3cccc(N[C@H]4CNCC[C@@H]4F)n3)cnc2cn1 [compound 76, 6-(6-(2,2-difluoroethoxy)imidazo[1,2-a]pyrazin-3-yl)-N-((3S,4S)-4-fluoropiperidin-3-yl)pyridin-2-amine] | 1 nM | 159 nM | < 0.5 nM | 199 nM | 19 nM
